In patent US9340590B2 (priority 2011, dated 2016):
pIC50: −log10 of the molar value. Where two headings read alike, the source gives them in different places. Positions of bridges follow the written chain, without caps; N, C: chain ends. Non-standard residues stand in square brackets, D forms with d. Residues, ends and D or L forms follow the SMILES beside them. Phe(4-COOH) = N[C@@H](Cc1ccc(C(=O)O)cc1)C(=O)O; Abu = CC[C@H](N)C(=O)O

Tests used:
Test in all cases: cell-based
hNav1.7 = hNav1.7 (Homo sapiens, UniProt Q15858); assay type: cell-based; details: IonWorks Quattro, read-out: IWQ Use Nav1.7
hNav1.7, sequence (Q15858 whole entry, looked up): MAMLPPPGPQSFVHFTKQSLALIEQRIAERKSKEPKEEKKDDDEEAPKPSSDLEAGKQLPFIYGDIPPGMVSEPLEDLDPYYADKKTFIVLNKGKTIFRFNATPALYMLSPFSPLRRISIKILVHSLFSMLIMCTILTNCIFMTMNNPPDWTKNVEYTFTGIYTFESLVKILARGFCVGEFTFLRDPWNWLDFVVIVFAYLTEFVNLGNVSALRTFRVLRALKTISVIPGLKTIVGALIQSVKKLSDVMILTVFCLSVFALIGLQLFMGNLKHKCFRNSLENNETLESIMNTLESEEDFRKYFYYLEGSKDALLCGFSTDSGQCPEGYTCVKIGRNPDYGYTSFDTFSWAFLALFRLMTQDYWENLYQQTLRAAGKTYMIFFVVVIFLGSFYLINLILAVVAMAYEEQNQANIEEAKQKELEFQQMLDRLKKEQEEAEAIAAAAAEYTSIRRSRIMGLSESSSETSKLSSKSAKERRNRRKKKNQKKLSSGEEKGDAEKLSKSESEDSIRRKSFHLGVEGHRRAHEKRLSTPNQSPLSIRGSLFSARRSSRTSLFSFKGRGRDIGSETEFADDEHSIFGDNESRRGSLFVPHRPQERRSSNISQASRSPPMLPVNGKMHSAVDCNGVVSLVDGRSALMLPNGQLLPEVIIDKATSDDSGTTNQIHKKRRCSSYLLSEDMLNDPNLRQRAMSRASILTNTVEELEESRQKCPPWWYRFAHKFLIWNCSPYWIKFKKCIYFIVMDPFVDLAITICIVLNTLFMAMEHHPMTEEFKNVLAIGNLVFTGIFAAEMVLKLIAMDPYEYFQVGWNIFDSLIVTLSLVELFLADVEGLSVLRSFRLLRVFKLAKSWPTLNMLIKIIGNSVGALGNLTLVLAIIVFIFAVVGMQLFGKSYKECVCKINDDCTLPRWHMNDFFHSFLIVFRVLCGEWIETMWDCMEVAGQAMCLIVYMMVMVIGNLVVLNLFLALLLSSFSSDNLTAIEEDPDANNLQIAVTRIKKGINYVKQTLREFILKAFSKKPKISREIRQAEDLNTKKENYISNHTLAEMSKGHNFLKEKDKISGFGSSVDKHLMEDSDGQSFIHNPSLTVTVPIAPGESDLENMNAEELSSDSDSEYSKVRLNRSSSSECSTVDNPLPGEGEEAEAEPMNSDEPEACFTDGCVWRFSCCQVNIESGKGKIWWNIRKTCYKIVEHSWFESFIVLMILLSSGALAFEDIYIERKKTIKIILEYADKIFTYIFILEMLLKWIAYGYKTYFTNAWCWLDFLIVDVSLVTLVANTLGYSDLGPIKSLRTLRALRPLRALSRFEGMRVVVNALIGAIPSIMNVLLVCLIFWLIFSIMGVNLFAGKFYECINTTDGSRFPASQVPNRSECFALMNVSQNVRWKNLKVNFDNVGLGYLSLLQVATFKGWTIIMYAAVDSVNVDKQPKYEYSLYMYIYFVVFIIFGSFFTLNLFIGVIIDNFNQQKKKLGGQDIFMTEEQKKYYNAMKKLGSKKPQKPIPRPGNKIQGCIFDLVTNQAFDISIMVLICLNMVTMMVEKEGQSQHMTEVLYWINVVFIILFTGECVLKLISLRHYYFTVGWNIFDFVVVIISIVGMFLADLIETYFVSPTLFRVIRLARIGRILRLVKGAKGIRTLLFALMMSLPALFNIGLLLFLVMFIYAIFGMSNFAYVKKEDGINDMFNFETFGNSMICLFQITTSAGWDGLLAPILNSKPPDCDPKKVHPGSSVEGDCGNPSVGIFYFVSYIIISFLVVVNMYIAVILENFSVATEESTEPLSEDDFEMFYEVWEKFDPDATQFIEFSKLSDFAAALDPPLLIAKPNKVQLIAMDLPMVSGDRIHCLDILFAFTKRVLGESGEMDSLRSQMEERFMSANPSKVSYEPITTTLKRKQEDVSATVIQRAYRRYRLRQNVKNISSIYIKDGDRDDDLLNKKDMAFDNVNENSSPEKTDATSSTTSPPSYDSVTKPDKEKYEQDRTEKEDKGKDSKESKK

hNav1.5 = hNav1.5 (Homo sapiens, UniProt Q14524); details: IonWorks Quattro, read-out: IWQ Use Nav1.5
hNav1.5, sequence (Q14524 whole entry, looked up): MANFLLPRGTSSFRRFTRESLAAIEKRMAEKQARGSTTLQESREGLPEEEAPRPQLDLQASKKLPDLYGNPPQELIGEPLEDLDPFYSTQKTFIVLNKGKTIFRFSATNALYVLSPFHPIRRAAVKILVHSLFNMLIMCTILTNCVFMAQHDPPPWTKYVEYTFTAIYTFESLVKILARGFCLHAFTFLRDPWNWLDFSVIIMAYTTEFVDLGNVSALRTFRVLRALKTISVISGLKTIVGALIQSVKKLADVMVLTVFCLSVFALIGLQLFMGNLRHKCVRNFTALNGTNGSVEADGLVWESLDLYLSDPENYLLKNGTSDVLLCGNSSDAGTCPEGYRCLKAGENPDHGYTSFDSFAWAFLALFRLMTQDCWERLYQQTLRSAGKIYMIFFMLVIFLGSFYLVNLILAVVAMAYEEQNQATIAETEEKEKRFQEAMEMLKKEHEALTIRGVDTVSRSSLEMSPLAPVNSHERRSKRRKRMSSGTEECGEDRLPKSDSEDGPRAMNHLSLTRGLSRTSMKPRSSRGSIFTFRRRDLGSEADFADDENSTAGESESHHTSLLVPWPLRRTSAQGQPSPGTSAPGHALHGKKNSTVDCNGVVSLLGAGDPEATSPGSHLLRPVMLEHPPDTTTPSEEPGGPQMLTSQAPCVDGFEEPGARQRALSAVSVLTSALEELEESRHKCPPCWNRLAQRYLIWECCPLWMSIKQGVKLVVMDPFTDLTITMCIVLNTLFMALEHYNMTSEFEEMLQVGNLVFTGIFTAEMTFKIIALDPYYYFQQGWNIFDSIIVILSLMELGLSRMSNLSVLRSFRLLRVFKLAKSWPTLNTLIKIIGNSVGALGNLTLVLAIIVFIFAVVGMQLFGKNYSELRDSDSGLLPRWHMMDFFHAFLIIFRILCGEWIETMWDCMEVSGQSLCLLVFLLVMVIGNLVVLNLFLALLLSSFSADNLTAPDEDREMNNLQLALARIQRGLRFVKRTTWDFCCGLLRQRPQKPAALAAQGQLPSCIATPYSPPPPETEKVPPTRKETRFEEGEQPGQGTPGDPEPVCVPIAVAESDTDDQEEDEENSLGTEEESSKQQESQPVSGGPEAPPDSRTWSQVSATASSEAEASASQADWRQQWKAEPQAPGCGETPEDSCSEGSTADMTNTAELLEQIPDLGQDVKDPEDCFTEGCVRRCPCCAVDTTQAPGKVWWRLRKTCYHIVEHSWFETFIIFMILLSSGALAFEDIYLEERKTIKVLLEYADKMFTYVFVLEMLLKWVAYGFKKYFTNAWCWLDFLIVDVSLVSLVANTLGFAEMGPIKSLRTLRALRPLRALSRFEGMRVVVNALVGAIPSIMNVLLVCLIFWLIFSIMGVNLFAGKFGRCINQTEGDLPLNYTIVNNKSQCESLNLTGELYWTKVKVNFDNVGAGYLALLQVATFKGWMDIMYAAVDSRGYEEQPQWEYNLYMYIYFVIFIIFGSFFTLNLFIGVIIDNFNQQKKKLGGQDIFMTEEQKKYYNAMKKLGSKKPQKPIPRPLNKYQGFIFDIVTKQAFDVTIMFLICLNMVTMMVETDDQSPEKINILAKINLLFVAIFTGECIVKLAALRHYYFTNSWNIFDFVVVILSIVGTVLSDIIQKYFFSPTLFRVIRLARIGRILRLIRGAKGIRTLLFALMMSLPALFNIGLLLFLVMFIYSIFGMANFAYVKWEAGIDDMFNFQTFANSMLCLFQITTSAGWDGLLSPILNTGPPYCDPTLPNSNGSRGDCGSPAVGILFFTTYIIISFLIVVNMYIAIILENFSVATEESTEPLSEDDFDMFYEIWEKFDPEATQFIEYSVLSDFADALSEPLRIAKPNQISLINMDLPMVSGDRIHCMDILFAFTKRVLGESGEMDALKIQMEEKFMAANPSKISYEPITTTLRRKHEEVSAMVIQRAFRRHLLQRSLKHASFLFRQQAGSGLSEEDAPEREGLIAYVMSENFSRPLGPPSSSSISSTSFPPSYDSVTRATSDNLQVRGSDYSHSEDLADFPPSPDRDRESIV

hNav1.3 = hNav1.3 (Homo sapiens, UniProt Q9NY46); details: IonWorks Quattro, read-out: IWQ Use Nav1.3
[1] = clamped to −110 mV, depolarized to −10 mV, 5 min after compound, n=2

With `CC[C@H](C)[C@@H]1NC(=O)[C@@H]2CSSC[C@@H]3NC(=O)[C@H](C(C)C)NC(=O)[C@H](CC(C)C)NC(=O)[C@H](CC(N)=O)NC(=O)[C@@H]4CCCN4C(=O)[C@H](CCCNC(=N)N)NC(=O)[C@H](CSSC[C@H](NC(=O)[C@@H](N)CC(=O)O)C(=O)N[C@@H](CC(C)C)C(=O)NCC(=O)N[C@@H](Cc4ccccc4)C(=O)N[C@@H](CCSC)C(=O)N[C@@H](CCCNC(=N)N)C(=O)N[C@@H](CCCCN)C(=O)N2)NC(=O)[C@H](CSSC[C@@H](C(=O)N[C@@H](CCCCN)C(=O)N[C@@H](Cc2ccc(O)cc2)C(=O)N[C@H](C(=O)N[C@@H](Cc2ccccc2)C(N)=O)C(C)C)NC(=O)[C@H](Cc2c[nH]c4ccccc24)NC(=O)[C@H](CCCCN)NC(=O)[C@H](Cc2c[nH]cn2)NC(=O)[C@H](Cc2ccc(C(=O)O)cc2)NC(=O)[C@H](CCCNC(=N)N)NC(=O)[C@H](CO)NC3=O)NC(=O)[C@H](CCCCN)NC(=O)[C@H](CC(=O)O)NC(=O)[C@H](CC(N)=O)NC(=O)[C@H](CC(=O)O)NC(=O)[C@@H]2CCCN2C1=O` [compound 350] (H-DCLGFMRKCIPDNDKCCRPNLVCSR[Phe(4-COOH)]HKWCKYVF-NH2; disulfide 2-17, 9-23, 16-30) as the molecule, how does the pIC50 (hNav1.7; Table 22, use, […]) read?
The pIC50 was 6.40.

What about the pIC50 (hNav1.5; Table 22, use, […]) of the same molecule?
The pIC50 was 5.19.

And the pIC50 (hNav1.3; Table 22, use, […])?
Its pIC50 is 5.58.

What does the source list for `CC[C@@H]1NC(=O)[C@H](CCCCN)NC(=O)[C@H](CCCNC(=N)N)NC(=O)[C@H](CCSC)NC(=O)[C@H](Cc2ccccc2)NC(=O)CNC(=O)[C@H](CC(C)C)NC(=O)[C@@H](NC(=O)[C@@H](N)CC(=O)O)CSSC[C@@H]2NC(=O)[C@H](CSSC[C@@H](C(=O)N[C@@H](CCCCN)C(=O)N[C@@H](Cc3ccc(O)cc3)C(=O)N[C@H](C(=O)N[C@@H](Cc3ccccc3)C(N)=O)C(C)C)NC(=O)[C@H](Cc3c[nH]c4ccccc34)NC(=O)[C@H](CCCCN)NC(=O)[C@H](Cc3c[nH]cn3)NC(=O)[C@H]([C@@H](C)O)NC(=O)[C@H](CCCNC(=N)N)NC(=O)[C@H](CO)NC(=O)[C@H](CC)NC(=O)[C@H](C(C)C)NC(=O)[C@H](CC(C)C)NC(=O)[C@H](CC(N)=O)NC(=O)[C@@H]3CCCN3C(=O)[C@H](CCCNC(=N)N)NC2=O)NC(=O)[C@H](CCCCN)NC(=O)[C@H](CC(=O)O)NC(=O)[C@H](CC(N)=O)NC(=O)[C@H](CC(=O)O)NC(=O)[C@@H]2CCCN2C(=O)[C@H]([C@@H](C)CC)NC1=O` [compound 135] (H-DCLGFMRK[Abu]IPDNDKCCRPNLV[Abu]SRTHKWCKYVF-NH2; disulfide 2-17, 16-30)?
pIC50 (hNav1.7; use-dependent block, hNav1.7): 5.09; pIC50 (hNav1.5; use-dependent block, hNav1.5): 5.04; pIC50 (hNav1.3; use-dependent block, hNav1.3): 4.91

With `CC[C@H](C)[C@@H]1NC(=O)[C@@H]2CSSC[C@@H]3NC(=O)[C@H](C(C)C)NC(=O)[C@H](CC(C)C)NC(=O)[C@H](CC(N)=O)NC(=O)[C@H](CO)NC(=O)[C@H](CO)NC(=O)[C@H](CCCNC(=N)N)NC(=O)[C@H](CSSC[C@H](NC(=O)[C@@H](N)CC(=O)O)C(=O)N[C@@H](CC(C)C)C(=O)NCC(=O)N[C@@H](Cc4ccccc4)C(=O)N[C@@H](CCSC)C(=O)N[C@@H](CCCNC(=N)N)C(=O)N[C@@H](CCCCN)C(=O)N2)NC(=O)[C@H](CSSC[C@@H](C(=O)N[C@@H](CCCCN)C(=O)N[C@@H](Cc2ccc(O)cc2)C(=O)N[C@H](C(=O)N[C@@H](Cc2ccccc2)C(N)=O)C(C)C)NC(=O)[C@H](Cc2c[nH]c4ccccc24)NC(=O)[C@H](CCCCN)NC(=O)[C@H](Cc2c[nH]cn2)NC(=O)[C@H]([C@@H](C)O)NC(=O)[C@H](CCCNC(=N)N)NC(=O)[C@H](CO)NC3=O)NC(=O)[C@H](CCCCN)NC(=O)[C@H](CC(=O)O)NC(=O)[C@H](CC(N)=O)NC(=O)[C@H](CC(=O)O)NC(=O)[C@@H]2CCCN2C1=O` [SEQ ID NO: 93, [Ser-Ser19]GpTx-1] (H-DCLGFMRKCIPDNDKCCRSSNLVCSRTHKWCKYVF-NH2; disulfide 2-17, 9-24, 16-31) as the molecule, how does the pIC50 (hNav1.7; Use) read?
Its pIC50 is 6.57.

And the pIC50 (hNav1.5; Use)?
Its pIC50 is 4.86.

What about the pIC50 (hNav1.3; Use) of the same molecule?
Its pIC50 is 6.49.

With `CC[C@H](C)[C@@H]1NC(=O)[C@@H]2CSSC[C@@H]3NC(=O)[C@H](C(C)C)NC(=O)[C@H](CC(C)C)NC(=O)[C@H](CC(N)=O)NC(=O)[C@@H]4CCCN4C(=O)[C@H](CCCNC(=N)N)NC(=O)[C@H](CSSC[C@H](NC(=O)[C@@H](N)CC(=O)O)C(=O)N[C@@H](CC(C)C)C(=O)NCC(=O)N[C@@H](C)C(=O)N[C@@H](CC(C)C)C(=O)N[C@@H](CCCNC(=N)N)C(=O)N[C@@H](CCCCN)C(=O)N2)NC(=O)[C@H](CSSC[C@@H](C(=O)N[C@@H](CCCCN)C(=O)N[C@@H](Cc2ccc(O)cc2)C(=O)N[C@H](C(=O)N[C@@H](Cc2ccccc2)C(N)=O)C(C)C)NC(=O)[C@H](Cc2c[nH]c4ccccc24)NC(=O)[C@H](CCCCN)NC(=O)[C@H](Cc2c[nH]cn2)NC(=O)[C@H]([C@@H](C)O)NC(=O)[C@H](CCCNC(=N)N)NC(=O)[C@H](CO)NC3=O)NC(=O)[C@H](CCCCN)NC(=O)[C@H](CC(=O)O)NC(=O)[C@H](CC(N)=O)NC(=O)[C@H](CCC(=O)O)NC(=O)[C@@H]2CCCN2C1=O` [compound 726] as the molecule, how does the pIC50 (hNav1.7; use-dependent block, hNav1.7) read?
The pIC50 was 6.46.

And the pIC50 (hNav1.5; use-dependent block, hNav1.5)?
Its pIC50 is under 4.30.

What about the pIC50 (hNav1.3; use-dependent block, hNav1.3) of the same molecule?
The pIC50 was 6.24.

What does the source list for `CC[C@H](C)[C@@H]1NC(=O)[C@@H]2CSSC[C@@H]3NC(=O)[C@H](C(C)C)NC(=O)[C@H](CC(C)C)NC(=O)[C@H](CC(N)=O)NC(=O)[C@@H]4CCCN4C(=O)[C@H](CCCNC(=N)N)NC(=O)[C@H](CSSC[C@H](NC(=O)[C@@H](N)CC(=O)O)C(=O)N[C@@H](CC(C)C)C(=O)NCC(=O)N[C@@H](Cc4ccccc4)C(=O)N[C@@H](CCSC)C(=O)N[C@@H](CCCNC(=N)N)C(=O)N[C@@H](CCCCN)C(=O)N2)NC(=O)[C@H](CSSC[C@@H](C(=O)N[C@@H](CCCCN)C(=O)N[C@@H](Cc2c[nH]c4ccccc24)C(=O)N[C@H](C(=O)N[C@@H](Cc2ccccc2)C(N)=O)C(C)C)NC(=O)[C@H](Cc2c[nH]c4ccccc24)NC(=O)[C@H](CCCNC(=N)N)NC(=O)[C@H](Cc2c[nH]cn2)NC(=O)[C@H]([C@@H](C)O)NC(=O)[C@H](CCCNC(=N)N)NC(=O)[C@H](CO)NC3=O)NC(=O)[C@H](CCCCN)NC(=O)[C@H](CC(=O)O)NC(=O)[C@H](CC(N)=O)NC(=O)[C@H](CC(=O)O)NC(=O)[C@@H]2CCCN2C1=O` [compound 443] (H-DCLGFMRKCIPDNDKCCRPNLVCSRTHRWCKWVF-NH2; disulfide 2-17, 9-23, 16-30)?
pIC50 (hNav1.7; use-dependent block, hNav1.7): 7.15; pIC50 (hNav1.5; use-dependent block, hNav1.5): 5.31; pIC50 (hNav1.3; use-dependent block, hNav1.3): 7.15

With `CC[C@H](C)[C@@H]1NC(=O)[C@@H]2CSSC[C@@H]3NC(=O)[C@H](C(C)C)NC(=O)[C@H](CC(C)C)NC(=O)[C@H](CC(N)=O)NC(=O)[C@@H]4CCCN4C(=O)[C@H](CCCNC(=N)N)NC(=O)[C@H](CSSC[C@H](NC(=O)[C@@H](N)CC(=O)O)C(=O)N[C@@H](CC(C)C)C(=O)NCC(=O)N[C@@H](Cc4ccccc4)C(=O)N[C@@H](CCSC)C(=O)N[C@@H](CCCNC(=N)N)C(=O)N[C@@H](CCCCN)C(=O)N2)NC(=O)[C@H](CSSC[C@@H](C(=O)N[C@@H](CCCCN)C(=O)N[C@@H](Cc2ccc(O)cc2)C(=O)N[C@@H](CC(=O)O)C(=O)N[C@@H](Cc2ccccc2)C(N)=O)NC(=O)[C@H](Cc2c[nH]c4ccccc24)NC(=O)[C@H](CCCCN)NC(=O)[C@H](Cc2c[nH]cn2)NC(=O)[C@H]([C@@H](C)O)NC(=O)[C@H](CCCNC(=N)N)NC(=O)[C@H](CO)NC3=O)NC(=O)[C@H](CCCCN)NC(=O)[C@H](CC(=O)O)NC(=O)[C@H](CC(N)=O)NC(=O)[C@H](CC(=O)O)NC(=O)[C@@H]2CCCN2C1=O` [compound 395] (H-DCLGFMRKCIPDNDKCCRPNLVCSRTHKWCKYDF-NH2; disulfide 2-17, 9-23, 16-30) as the molecule, how does the pIC50 (hNav1.7; Table 26, use, […]) read?
The pIC50 was 6.11.

What about the pIC50 (hNav1.5; Table 26, use, […]) of the same molecule?
Its pIC50 is 5.06.

What about the pIC50 (hNav1.3; Table 26, use, […]) of the same molecule?
Its pIC50 is 6.77.

Which results are given for `CC[C@H](C)[C@@H]1NC(=O)[C@@H]2CSSC[C@@H]3NC(=O)[C@H](C(C)C)NC(=O)[C@H](CC(C)C)NC(=O)[C@H](CC(N)=O)NC(=O)[C@@H]4CCCN4C(=O)[C@H](CCCNC(=N)N)NC(=O)[C@H](CSSC[C@H](NC(=O)[C@@H](N)CC(=O)O)C(=O)N[C@@H](CC(C)C)C(=O)NCC(=O)N[C@@H](Cc4ccccc4)C(=O)N[C@@H](CC[Se]C)C(=O)N[C@@H](CCCNC(=N)N)C(=O)N[C@@H](CCCCN)C(=O)N2)NC(=O)[C@H](CSSC[C@@H](C(=O)N[C@@H](CCCCN)C(=O)N[C@@H](Cc2ccc(O)cc2)C(=O)N[C@H](C(=O)N[C@@H](Cc2ccccc2)C(N)=O)C(C)C)NC(=O)[C@H](Cc2c[nH]c4ccccc24)NC(=O)[C@H](CCCCN)NC(=O)[C@H](Cc2c[nH]cn2)NC(=O)[C@H]([C@@H](C)O)NC(=O)[C@H](CCCNC(=N)N)NC(=O)[C@H](CO)NC3=O)NC(=O)[C@H](CCCCN)NC(=O)[C@H](CC(=O)O)NC(=O)[C@H](CC(N)=O)NC(=O)[C@H](CC(=O)O)NC(=O)[C@@H]2CCCN2C1=O` [SEQ ID NO: 3]?
pIC50 (hNav1.7; [1]): 7.00; pIC50 (hNav1.5; [1]): 4.86; pIC50 (hNav1.3; [1]): 7.00
